Laboratory results from patent EP0006352A1, “Hydantoins and thiohydantoins, process for their preparation and pharmaceutical compositions containing them” (BEECHAM GROUP PLC, priority 1978, dated 1980).

Columns and labels:
[1] = system: 5-hydroxytryptamine induce bronchoconstriction; test: Inhibition of 5-hydroxytryptamine induced bronchoconstriction in the anaesthetised, artificially respired guinea-pig (Konzett-Rossler preparation); type: in vivo; conditions: Cavia porcellus, iv
Excerpt: (a) The Compounds were examined for their ability to inhibit 5-hydroxytryptamine induce bronchoconstriction in the anaesthetised, artificially respired guinea-pig (Konzett-Rossler preparation).

[2] = system: bronchoconstriction induced by an histamine aerosol; test: Protection of conscious guinea-pigs against histamine aerosol induced bronchoconstriction (Herxheimer test); type: in vivo; conditions: 10 gg/ml by aerosol
Description: (b) The Compounds were also examined for their ability to protect conscious guinea-pigs against bronchoconstriction induced by an histamine aerosol (Herxheimer test). The Compounds were administered by aerosol.
The aerosol was produced in the following manner.
Water soluble compounds were dissolved in normal saline at a concentration of 1 mg/ml. Water insoluble compounds were dissolved in ethanol at a concentration of 10 mg/ml. These solutions were then diluted to the test concentrations with normal saline.

CCCCCCC(C)(O)CCN1C(=O)N(CC#N)C(=O)C1CC=CCCCC(=O)OCC (stereo not drawn) [Compound 2, 1-(3'-hydroxy-3'-methyl-n-nonyl)-3-cyanomethyl-5-(6"-ethoxycarbonyl-n-hex-2"-enyl) hydantoin]
ED50 [1]: 1.1 µg/kg
increase in pre-convulsive coughing time ([2]; 2 minutes after dosing): 178%
increase in pre-convulsive coughing time ([2]; after 10 minutes): 39%
